# According to patent US20200009221A1, “METHODS FOR INHIBITING NECROSIS” (priority 2010, published 2020):
# Residues, ends and D or L forms follow the SMILES beside them. *: point of attachment. MeOSuc = COC(=O)CCC(=O)*; CH2Cl = ClC*
# Assays:
# Assay type in all cases: cell-based
# [1] = system: U937 cells; assay: KCN (15 mM)-induced necrosis in U937 cells, LDH release assay, Humanin derivative with Elastase inhibitor III (Example 2); conditions: 7 hours
# Protocol: (§1) The U937 cells are p53 minus monocytic cell line. The cells were grown at 37° C. in the presence of 5% CO2 in RPMI-1640 medium supplemented with 10% heat-inactivated fetal bovine serum (FCS), 2 Mm glutamine, 100 μg/ml penicillin, and 100 μg/ml streptomycin. The cells were split every third day.
# (§2) U937 cells were cultured in complete RPMI-1640 medium, washed once and seeded at 4.5×10^5 cells/ml in glucose free medium 1 hour before treatment. Humanin or its derivatives of SEQ ID MOs 1-6 and Elastase inhibitor III (EI-III) and vehicle were added 30 minutes before the addition of KCN (15 mM). Following the treatment, the cells were incubated for 7 hours and cell death was measured via the LDH release assay.
# (§3) The amount of LDH released from lysed cells is a sensitive measure of cell death. In this study, necrotic cell death was measured in 96-well plates using Promega's CytoTox 96 Non-Radioactive Cytotoxicity Assay kit, which accurately and rapidly measures cell death by quantitating the release of lactate dehydrogenase (LDH), a stable cytosolic enzyme from lysed cells.
# (§4) At the end of each experiment, the cells were centrifuged at 240×g for 10 minutes at room temperature. Next, the supernatant was collected and 50 μL aliquots were taken for the LDH release assay. The LDH content from cells lysed in 0.1% Tryton X-100 for 10-15 minutes was used as a measure for total LDH content. The LDH released in the treatment (after subtracting the blank measure) was used for measuring necrotic cell death as a percentage from total LDH. A measurement of the absorbance value at 490 nm was preformed by ELISA READER, 30 minutes after the addition of the LDH reaction solution.
# [2] = system: U937 cells; assay: KCN (5 mM)-induced necrosis in U937 cells, LDH release assay, Humanin derivative with Mimosine (Example 3); conditions: 7 hours
# Protocol: as §1
# as §2, with “Mimosine” for “Elastase inhibitor III (EI-III)”, “(5” for “(15”
# as §3, §4
# [3] = system: U-937 cells; assay: KCN-induced necrosis in U-937 cells, LDH release (Example 1); conditions: 10 μM peptide, LDH release after 7 hours (FIG. 1)
# Protocol: FIGS. 1A-1B. […] LDH release was measured after 7 hours (see, FIG. 1A) % LDH release with the crude data; (see, FIG. 1B) The amount of LDH released of control cells was subtracted from all treatments, P*<0.02. […] The effects of HN and its derivatives on necrotic cell death induced by staurosporine/oligomicyn in PC12 cells are depicted in FIG. 4 (by LDH release) and FIG. 5 (ethydium bromide and acridine orange staining).
# [4] = system: PC12 cells; assay: KCN-induced necrosis in PC12 cells, LDH release; conditions: LDH release after 5 hours (FIG. 2 and FIG. 3)
# Protocol: FIGS. 2A-2B. […] LDH release was measured after 5 hours (see, FIG. 2A) % LDH release with the crude data; (see, FIG. 2B) The amount of LDH released from control cells was subtracted from all treatments, P*<0.05. FIG. 3. Is a bar graph showing the effect of different HN17 concentrations on KCN-induced necrosis in PC12 cells as assessed by the determination of LDH release. PC12 cells were treated with or without 7 mM KCN for 5 hours in the presence or absence of different concentrations of HN17 (1-30 μM), and then LDH release from the cells was determined, P*<0.04. […] The effects of HN and its derivatives on necrotic cell death induced by staurosporine/oligomicyn in PC12 cells are depicted in FIG. 4 (by LDH release) and FIG. 5 (ethydium bromide and acridine orange staining).
compound,measurement,setting,value
"COC(=O)CCC(=O)N[C@@H](C)C(=O)N[C@@H](C)C(=O)N1CCC[C@H]1C(=O)N[C@H](C(=O)CCl)C(C)C [EI-III, HLE Inhibitor MeOSuc-AAPV-CMK] (MeOSuc-AAPV-CH2Cl)",impact on necrotic cell death induced by KCN,[1]; EI-III at 50 μM,no impact
same,inhibition of cell death by necrosis,[1]; EI-III at 100 μM,75%
same,inhibition of cell death by necrosis,[1]; EI-III at 300 μM,75%
"NC(Cn1ccc(=O)c(O)c1)C(=O)O (centres unmarked) [mimosine, Mimosine, reference compound]",inhibition of necrotic cell death,[2]; mimosine at 30 μM,no inhibition
same,inhibition of necrotic cell death,[2]; mimosine at 70 μM,no inhibition
same,inhibition of cell death by necrosis,[2]; mimosine at 300 μM,12%
"MAPAGASCLLLLTGEIDLPVKRRA [AGA-HNG, Humanin derivative]",protection against KCN-induced necrotic cell death as measured by LDH release,[3],conferred protection
same,impact on necrotic cell death induced by KCN,[1]; AGA-HNG at 1 μM,no impact
same,impact on necrotic cell death induced by KCN,[1]; AGA-HNG at 10 μM,no impact
"MAPRGFSCLLLLTGEIDLPVKRRA [HNG, Humanin derivative]",inhibition of necrotic cell death,[2]; HNG at 1 μM,no inhibition
same,inhibition of necrotic cell death,[2]; HNG at 10 μM,no inhibition
same,inhibition of necrotic cell death,[2]; HNG at 301 μM,no inhibition
"PRGFSCLLLLTSEIDLP [HN17, Humanin derivative; the short name HN17 is also printed for AGA-C8R-HNG17]",protection against KCN-induced necrotic cell death as measured by LDH release,[3],conferred protection
same,protection against KCN-induced necrotic cell death as measured by LDH release,[4],confers protection
